Assay results from the supplement of paper PMC10949913.

Assays:
Assay in all cases: area under concentration-response curve (viability) (AUC (a.u.)); higher = less active
Conditions in all cases: 48 h
CU-ACC1 = system: CU-ACC1
Method in brief: (§1)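 Cells from three adrenocortical carcinoma lines were seeded at 500–1,000 cells/well in 5 µL medium in 1,536-well plates. Each library compound was added as 23 nL at 11 concentrations, and after 48 h CellTiter-Glo was added for 15 minutes at room temperature before reading luminescence. Plate-wise normalisation to vehicle and empty-well controls preceded curve fitting. AC50 and area under the curve were calculated only for inhibitory or non-responding curve classes.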

CU-ACC2 = system: CU-ACC2
Method in brief: as §1

NCI-H295R = system: NCI-H295R
Method in brief: as §1

Structure (SMILES)	area under concentration-response curve (CU-ACC1)	area under concentration-response curve (CU-ACC2)	area under concentration-response curve (NCI-H295R)
CC(=O)OCC(=O)[C@@]12\N=C(C)/O[C@@H]1C[C@H]3[C@@H]4CCC/5=C/C(=O)/C=C\[C@]5(C)[C@H]4[C@@H](O)C[C@]23C	483	581	514
Cc1ccc(NC(=O)c2cccc(N(C)C)c2)cc1NC(=O)c1ccc(O)cc1	496	556	511
C[C@]12CCC(=O)C(O)=C1CC[C@@H]1[C@@H]2CC[C@]2(C)C(=O)CC[C@@H]12	404	470	417
OC(COC1=C2C(=O)\C=C(/OC2=CC=C1)C([O-])=O)COC3=C4C(=O)\C=C(/OC4=CC=C3)C([O-])=O	527	624	555
COc1ccc(COc2cc3oc(=O)c4cc(C(C)O)ccc4c3cc2OC)cc1 (stereo not given)	356	506	466
CN1[C@@H]2CCC[C@H]1CC(NC(=O)c1nn(C)c3ccccc13)C2 (stereo not given in full)	511	584	490
O=C(NCc1ccccc1)[C@H](Cc1ccccc1)NC(=O)[C@H]1O[C@@H]1C(=O)NCCc1ccc(O)cc1	495	557	524
OC1=CC=C(C=C1)\C2=C\OC3=C(C(=CC(=C3)O)O)C2=O	435	499	555
COc1ccc2cc(OCC3(C(=O)O)CN(C(=O)c4ccc(F)cc4)C3)ccc2c1	556	606	552
Cc1cccc(C)c1NC(=O)CN1CCCC1=O	486	544	520
N#C/N=C(\NCCCCCCOc1ccc(Cl)cc1)Nc1ccncc1	269	367	425
O=C(CBr)N1CC([N+](=O)[O-])([N+](=O)[O-])C1	454	464	439
COc1ccc([S+](=O)([O-])N[C@@H](CNc2nc(C)nc(N3CCC(c4ccc5c(n4)NCCC5)CC3)c2C)C(=O)O)cc1	554	441	589
CCOC(=O)c1c(C)n(C)c2ccc(O)cc12	536	593	520
CNC(=O)[C@H](Cc1c[nH]c2ccccc12)NC(=O)[C@@H](CC(=O)NO)CC(C)C	473	492	460
Cc1cc(SCc2sc(-c3ccc(C(F)(F)F)cc3)nc2C)ccc1OCC(=O)O	517	608	540
O=C(NCC1CCOCC1)c1cnc(Nc2ccc(Cl)cc2Cl)nc1C(F)(F)F	399	562	525
CCCCCN(CCC12CC3CC(CC(C3)C1)C2)C(=O)NCCCc1ccncc1	472	519	453
CCCCNc1cc(C(=O)O)cc([S+](N)(=O)[O-])c1Oc1ccccc1	505	596	553
CCCNC(=O)Nc1ccc(Oc2ncnc3cc(OC)c(OC)cc23)cc1Cl	332	383	400

Structure (SMILES)	area under concentration-response curve (CU-ACC1)	area under concentration-response curve (CU-ACC2)	area under concentration-response curve (NCI-H295R)
CN1C(=O)N(c2cc(Cl)cc(Cl)c2)C(=O)[C@]12CN(Cc1cc(C(=O)O)cs1)C[C@H]2c1ccc(C#N)cc1	401	420	404
Clc1ccc2ncc(-c3cccc(NC4CNC4)n3)n2c1	522	644	576
COC(=O)CCC1=C(C)C2=CC3=NC(=CC4=C(C)C(=C([NH]4)C=C\5N=C(C=C1[NH]2)\C(=C5C)CCC(O)=O)C=C)\C6=C\C=C(/[C@@H](C(=O)OC)[C@@]36C)C(=O)OC	438	416	462
Oc1ccc(OCc2ccccc2)cc1	378	353	417
O=P1(N(CCCl)CCCl)NCCCO1 (stereo not given)	534	578	526
CN\1N(C(=O)\C(=C1C)C(=O)NC2=CC=C(OC3=CC=NC4=C3C(=C[NH]4)C5=CC=CC=C5)C(=C2)F)C6=CC=C(F)C=C6	522	525	535
O=C(NCC(=O)N1CC[C@H](NC2CCC(O)(c3ccc(-c4ncccn4)cn3)CC2)C1)c1cccc(C(F)(F)F)c1 (stereo not given in full)	554	606	560
Cc1ccc(C(=O)c2cc(O)c(O)c([N+](=O)[O-])c2)cc1	551	645	598
COc1cc(C[C@@H](CO)[C@H](CO)Cc2ccc(O)c(OC)c2)ccc1O	534	575	517
CC(C)NCC(O)COc1ccc(CCOCC2CC2)cc1 (stereo not given)	493	560	536
COCCNCCCn1c(C(=O)CF)c(-c2ccc(C)cc2)c2c(N)ncnc21	537	655	581
O=C1\C=C/C[C@@H]2[C@H]3CCCN4CCC[C@@H](CN12)[C@@H]34	541	509	546
O=C(NCC1CCCCN1)c1cc(OCC(F)(F)F)ccc1OCC(F)(F)F (stereo not given)	431	527	525
CC(=O)NC(CS)C(=O)O (stereo not given)	413	466	457
CCCNC(=O)c1cn2ncnc(Nc3cc(C(=O)NC4CC4)ccc3C)c2c1C	539	654	583
O=C1Nc2ccc(I)cc2/C1=C/c1cc(Br)c(O)c(Br)c1	500	585	506
CC(C)(F)C[C@H](N[C@@H](c1ccc(-c2ccc([S+](C)(=O)[O-])cc2)cc1)C(F)(F)F)C(=O)NC1(C#N)CC1	481	587	527
CNC1CCCN(C1)C2=C(F)C=C3C(=O)\C(=C/N(C4CC4)C3=C2OC)C(O)=O (stereo not given)	530	655	564
Nc1ncnc2nc(-c3ccc(N4CCOCC4)nc3)cc(-c3cccc(Br)c3)c12	492	525	459
CCCCC(=O)O[C@@]1([C@@H](C)C[C@H]2[C@@H]3CCC/4=C/C(=O)/C=C\[C@]4(C)[C@@]3(F)[C@@H](O)C[C@]12C)C(=O)CO	455	555	462
